According to patent US12568972B2, “Pyridazinol compounds and derivatives, preparation methods, herbicidal compositions and applications thereof” (Qingdao Kingagroot Chemical Compound Co., Ltd., priority 2018, dated 2026):
Where two headings read alike, the source gives them in different places.

Tested on: weeds
Assay: Control effect and synergistic effect of the mixture of (i) and (ii), postemergence (Gowing method)
Assay type: in vivo
Text: Wherein, in the formula, X represented the fresh weight inhibition rate of the active ingredient A in a dosage of P, and Y represented the fresh weight inhibition rate of the active ingredient B in a dosage of Q. The statistic results are shown in Table 6.

[1] = post-emergence, 480 h, Abutilon theophrasti, 30 g a.i./ha, postemergence, 20 days after treatment, read-out: Inhibitory effect of component (ii) when applied alone at same dose
[2] = Abutilon theophrasti, 50 g a.i./ha, postemergence, 20 days after treatment
[3] = post-emergence, 480 h, Abutilon theophrasti, 50 g a.i./ha, postemergence, 20 days after treatment, read-out: Inhibitory effect of component (ii) when applied alone at same dose
[4] = Abutilon theophrasti, 5 g a.i./ha, postemergence, 20 days after treatment

COC(=O)c1nc(-c2ccc(Cl)c(OC)c2F)cc(N)c1Cl [Halauxifen-methyl]
Inhibitory effect of component (ii) when applied alone at same dose (Abutilon theophrasti, 2 g a.i./ha, postemergence, 20 days after treatment): 40%

Cn1[nH]c(C2CC2)c(C(=O)c2ccc(C(F)(F)F)c(N3CCCCC3=O)c2Cl)c1=O [Huanbifucaotong]
Inhibitory effect of component (ii) when applied alone at same dose (Abutilon theophrasti, 30 g a.i./ha, postemergence, 20 days after treatment): 30%

CS(=O)(=O)c1cc(C(F)(F)F)ccc1C(=O)c1cnoc1C1CC1 [Isoxaflutole]
pest or weed control at 30 g/ha [1]: 30%

CS(=O)(=O)c1ccc(C(=O)C2C(=O)CCCC2=O)c(Cl)c1OCCC1OCCO1 [Lancotrione]
Inhibitory effect of component (ii) when applied alone at same dose [2]: 40%

Cc1cc(Cl)ccc1OCCCC(=O)O [MCPB]
Inhibitory effect of component (ii) when applied alone at same dose (Sisymbrium sophia, 200 g a.i./ha, postemergence, 20 days after treatment): 40%

CS(=O)(=O)c1ccc(C(=O)C2C(=O)CCCC2=O)c([N+](=O)[O-])c1 [Mesotrione]
pest or weed control at 30 g/ha [1]: 40%

CNc1cnn(-c2cccc(C(F)(F)F)c2)c(=O)c1Cl [Norflurazon]
pest or weed control at 300 g/ha (post-emergence, 480 h, Abutilon theophrasti, 300 g a.i./ha, postemergence, 20 days after treatment, read-out: Inhibitory effect of component (ii) when applied alone at same dose): 50%

Nc1c(Cl)c(Cl)nc(C(=O)O)c1Cl [Picloram]
pest or weed control at 50 g/ha [3]: 40%

O=C(Nc1ccc(F)cc1)c1cccc(Oc2cccc(C(F)(F)F)c2)n1 [Picolinafen]
Inhibitory effect of component (ii) when applied alone at same dose [2]: 30%

Cc1nn(C)c(O)c1C(=O)c1ccc(C(F)(F)F)cc1S(C)(=O)=O [Pyrasulfotole]
Inhibitory effect of component (ii) when applied alone at same dose (Abutilon theophrasti, 15 g a.i./ha, postemergence, 20 days after treatment): 50%

O=C(O)c1c(Cl)ccc2cc(Cl)cnc12 [Quinclorac]
pest or weed control at 50 g/ha (post-emergence, 480 h, Galium aparine, 50 g a.i./ha, postemergence, 20 days after treatment, read-out: Inhibitory effect of component (ii) when applied alone at same dose): 50%

Cc1nn(C)cc1C(=O)Oc1c(C(=O)c2ccc(C(F)(F)F)cc2S(C)(=O)=O)c(C)nn1C [Shuangzuocaotong]
Inhibitory effect of component (ii) when applied alone at same dose (Sisymbrium sophia, 5 g a.i./ha, postemergence, 20 days after treatment): 40%

CS(=O)(=O)c1ccc(C(=O)C2C(=O)CCCC2=O)c(Cl)c1 [Sulcotrione]
pest or weed control at 50 g/ha (Abutilon theophrasti, post-emergence, 480 h, read-out: Inhibitory effect of component (ii) when applied alone at same dose): 30%

CS(=O)(=O)c1ccc(C(=O)C2C(=O)CCCC2=O)c(Cl)c1COCC1CCCO1 (centres unmarked) [Tefuryltrione]
Inhibitory effect of component (ii) when applied alone at same dose [2]: 40%

CS(=O)(=O)c1ccc(C(=O)C2C(=O)CCCC2=O)c(Cl)c1COCC(F)(F)F [Tembotrione]
pest or weed control at 15 g/ha (post-emergence, 480 h, Abutilon theophrasti, 15 g a.i./ha, postemergence, 20 days after treatment, read-out: Inhibitory effect of component (ii) when applied alone at same dose): 30%

CCn1ncc(C(=O)c2ccc(S(C)(=O)=O)c(OCCOC)c2C)c1OC(C)OC(=O)OC (centres unmarked) [Tolpyralate]
Inhibitory effect of component (ii) when applied alone at same dose [4]: 50%

Cc1c(C(=O)c2cnn(C)c2O)ccc(S(C)(=O)=O)c1C1=NOCC1 [Topramezone]
Inhibitory effect of component (ii) when applied alone at same dose [4]: 40%

O=C(O)COc1nc(Cl)c(Cl)cc1Cl [Trichlopyr]
Inhibitory effect of component (ii) when applied alone at same dose [2]: 40%

O=C(O)COc1nc(Cl)c(Cl)cc1Cl [Triclopyr]
pest or weed control at 50 g/ha [3]: 35%

Fluridone
Inhibitory effect of component (ii) when applied alone at same dose (Abutilon theophrasti, 100 g a.i./ha, postemergence, 20 days after treatment): 45%
